From patent US6664231B1, “Anti-fungal peptides” (priority 1993, dated 2003) come the findings set out here.

Square brackets hold non-standard residues; d marks the D form. Peptide text beside a SMILES is read from it. Phe(4-NH2) = Nc1ccc(C[C@H](N)C(=O)O)cc1; 1Nal = N[C@@H](Cc1cccc2ccccc12)C(=O)O

The test system of the test is C. albicans (CA-1, Strain SLU-1). As to the kind of experiment: Radial diffusion assay. The test is classed as cell-based, Candida albicans. The following applies: pmoles of peptide added to well to achieve a 30 mm^2 zone, PROBIT analysis, crude or purified (P′) peptide. As for the experimental part: In the radial diffusion assay procedures, the CA-1 cultures and peptide solutions were prepared as in the broth assay procedure described above. Ten mL of molten underlayer agarose comprising 3% Sabouraud Dextrose broth, 1% agarose (Pharmacia, Piscataway, N.J.), 0.02% Tween 20, and 10 mM sodium phosphate at pH 7.4, was added to polystyrene tubes and maintained in a 56° C. water bath until the addition of yeast. Tubes were cooled to approximately 45° C., yeast were added to give a final concentration of 1×10^6 CFU/mL, and the tubes were mixed again by inverting. The contents were poured into level square petri dishes and distributed evenly. […] A series of wells were punched into the hardened agarose using a sterile 3 mm punch attached to a vacuum apparatus.
Peptides to be assayed were 2-fold serially diluted in Dulbecco's PBS (D-PBS) starting from a concentration of approximately 1 mg/mL. Five μL of each dilution were added to each well and the plates were incubated at 37° C. for 3 hours. An overlayer of 10 mL of molten agarose comprising 6% Sabouraud Dextrose broth, 1% agarose, and 10 mM sodium phosphate, pH 7.4, (at approximately 45° C.) was then added and plates were incubated overnight at 37° C. Following this overnight incubation, a dilute Coomassie solution was poured into the plates and allowed to stain for 24 hours.
Clear zones of growth inhibition around each well were measured with calipers. The actual area of growth inhibition (mm^2) was calculated by subtracting the area of the well. Table 1 below sets out the results of the radial diffusion assays for tested peptides in terms of the number of picomoles (pmol) of peptide required to establish a 30 mm^2 area of growth inhibition calculated by PROBIT analysis (e.g., calculated from regression of the linear portion of log-concentration dose-response curve, log pmol/well vs. net area of inhibition).

On to `CC[C@H](C)[C@H](NC(=O)[C@H](CC(C)C)NC(=O)[C@H](Cc1c[nH]c2ccccc12)NC(=O)CNC(=O)[C@@H](NC(=O)[C@H](CCCCN)NC(=O)[C@H](CO)NC(=O)[C@@H](N)CCCCN)C(C)C)C(=O)N[C@@H](CCC(N)=O)C(=O)N[C@@H](CC(C)C)C(=O)N[C@@H](Cc1ccccc1)C(=O)N[C@@H](Cc1cccc2ccccc12)C(=O)N[C@@H](CCCCN)C(=O)N[C@@H](Cc1cccc2ccccc12)C(N)=O` [XMP.146] (H-KSKVGWLIQLF[1Nal]K[1Nal]-NH2), for which the “C. albicans pmol/30 mm^2 zone” value is given as “b (No detectable activity up to 5 μg/well)”. Still for that read-out and setting: under `CC[C@H](C)[C@H](NC(=O)[C@H](CC(C)C)NC(=O)[C@H](Cc1cccc2ccccc12)NC(=O)CNC(=O)[C@@H](NC(=O)[C@H](CCCCN)NC(=O)[C@H](CO)NC(=O)[C@@H](N)CCCCN)C(C)C)C(=O)N[C@@H](CCC(N)=O)C(=O)N[C@@H](CC(C)C)C(=O)N[C@@H](Cc1ccccc1)C(=O)N[C@@H](Cc1cccc2ccccc12)C(=O)N[C@@H](CCCCN)C(=O)N[C@@H](CCCCN)C(N)=O` [XMP.148] (H-KSKVG[1Nal]LIQLF[1Nal]KK-NH2) stands more than 2805 pmol/30 mm^2 zone; under `CC[C@H](C)[C@H](NC(=O)[C@H](CC(C)C)NC(=O)[C@H](Cc1cccc2ccccc12)NC(=O)CNC(=O)[C@@H](NC(=O)[C@H](CCCCN)NC(=O)[C@H](CO)NC(=O)[C@@H](N)CCCCN)C(C)C)C(=O)N[C@@H](CCC(N)=O)C(=O)N[C@@H](CC(C)C)C(=O)N[C@@H](Cc1ccccc1)C(=O)N[C@@H](Cc1c[nH]cn1)C(=O)N[C@@H](CCCCN)C(=O)N[C@@H](Cc1cccc2ccccc12)C(N)=O` [XMP.222] (H-KSKVG[1Nal]LIQLFHK[1Nal]-NH2), >2,610 pmol/30 mm^2 zone. The same measure, in the same setting: under `CC[C@H](C)[C@H](NC(=O)[C@H](CC(C)C)NC(=O)[C@H](Cc1cccc2ccccc12)NC(=O)CNC(=O)[C@@H](NC(=O)[C@H](CCCCN)NC(=O)[C@H](CO)NC(=O)[C@@H](N)CCCCN)C(C)C)C(=O)N[C@@H](CCC(N)=O)C(=O)N[C@@H](Cc1cccc2ccccc12)C(=O)N[C@@H](Cc1ccccc1)C(=O)N[C@@H](Cc1c[nH]cn1)C(=O)N[C@@H](CCCCN)C(=O)N[C@@H](CCCCN)C(N)=O` [XMP.223] (H-KSKVG[1Nal]LIQ[1Nal]FHKK-NH2) stands “b (No detectable activity up to 5 μg/well)”; under `CC[C@H](C)[C@H](NC(=O)[C@H](CC(C)C)NC(=O)[C@H](Cc1cccc2ccccc12)NC(=O)CNC(=O)[C@@H](NC(=O)[C@H](CCCCN)NC(=O)[C@H](CO)NC(=O)[C@@H](N)CCCCN)C(C)C)C(=O)N[C@@H](Cc1ccc(N)cc1)C(=O)N[C@@H](CC(C)C)C(=O)N[C@@H](Cc1ccccc1)C(=O)N[C@@H](Cc1c[nH]cn1)C(=O)N[C@@H](CCCCN)C(=O)N[C@@H](CCCCN)C(N)=O` [XMP.224] (H-KSKVG[1Nal]LI[Phe(4-NH2)]LFHKK-NH2), >2,443 pmol/30 mm^2 zone. Turning to `CC[C@H](C)[C@H](NC(=O)[C@H](CC(C)C)NC(=O)[C@H](Cc1cccc2ccccc12)NC(=O)[C@H](Cc1ccc(N)cc1)NC(=O)[C@@H](NC(=O)[C@H](CCCCN)NC(=O)[C@H](CO)NC(=O)[C@@H](N)CCCCN)C(C)C)C(=O)N[C@@H](CCC(N)=O)C(=O)N[C@@H](CC(C)C)C(=O)N[C@@H](Cc1ccccc1)C(=O)N[C@@H](Cc1c[nH]cn1)C(=O)N[C@@H](CCCCN)C(=O)N[C@@H](CCCCN)C(N)=O` [XMP.225] (H-KSKV[Phe(4-NH2)][1Nal]LIQLFHKK-NH2), the “C. albicans pmol/30 mm^2 zone” value is on record as >2,506 pmol/30 mm^2 zone. Besides, the “C. albicans pmol/30 mm^2 zone” value (listed as XMP.225P′) is recorded as >2,736 pmol/30 mm^2 zone.

With `CC[C@H](C)[C@H](NC(=O)[C@H](CC(C)C)NC(=O)[C@H](Cc1cccc2ccccc12)NC(=O)CNC(=O)[C@@H](NC(=O)[C@H](CCCCN)NC(=O)[C@H](CO)NC(=O)[C@@H](N)CCCCN)C(C)C)C(=O)N[C@@H](CCC(N)=O)C(=O)N[C@@H](CC(C)C)C(=O)N[C@@H](Cc1c[nH]c2ccccc12)C(=O)N[C@@H](Cc1c[nH]cn1)C(=O)N[C@@H](CCCCN)C(=O)N[C@@H](CCCCN)C(N)=O` [XMP.226] (H-KSKVG[1Nal]LIQLWHKK-NH2), the “C. albicans pmol/30 mm^2 zone” value is >2,597 pmol/30 mm^2 zone. The “C. albicans pmol/30 mm^2 zone” value (listed as XMP.226P′) is given as >2,895 pmol/30 mm^2 zone.

As for `CC[C@H](C)[C@H](NC(=O)[C@H](CC(C)C)NC(=O)[C@H](Cc1c[nH]c2ccccc12)NC(=O)CNC(=O)[C@@H](NC(=O)[C@H](CCCCN)NC(=O)[C@H](CO)NC(=O)[C@@H](N)CCCCN)C(C)C)C(=O)N[C@@H](CCC(N)=O)C(=O)N[C@@H](Cc1cccc2ccccc12)C(=O)N[C@@H](Cc1ccccc1)C(=O)N[C@@H](Cc1c[nH]cn1)C(=O)N[C@@H](CCCCN)C(=O)N[C@@H](Cc1cccc2ccccc12)C(N)=O` [XMP.227] (H-KSKVGWLIQ[1Nal]FHK[1Nal]-NH2), the “C. albicans pmol/30 mm^2 zone” value was >2,365 pmol/30 mm^2 zone. Same read-out and setting: under `CC[C@H](C)[C@H](NC(=O)[C@H](CC(C)C)NC(=O)[C@H](Cc1c[nH]c2ccccc12)NC(=O)CNC(=O)[C@@H](NC(=O)[C@H](CCCCN)NC(=O)[C@H](CO)NC(=O)[C@@H](N)CCCCN)C(C)C)C(=O)N[C@@H](Cc1ccc(N)cc1)C(=O)N[C@@H](CC(C)C)C(=O)N[C@@H](Cc1ccccc1)C(=O)N[C@@H](Cc1c[nH]cn1)C(=O)N[C@@H](CCCCN)C(=O)N[C@@H](Cc1cccc2ccccc12)C(N)=O` [XMP.228] (H-KSKVGWLI[Phe(4-NH2)]LFHK[1Nal]-NH2) stands “b (No detectable activity up to 5 μg/well)”; under `CC[C@H](C)[C@H](NC(=O)[C@H](CC(C)C)NC(=O)[C@H](Cc1c[nH]c2ccccc12)NC(=O)[C@H](Cc1ccc(N)cc1)NC(=O)[C@@H](NC(=O)[C@H](CCCCN)NC(=O)[C@H](CO)NC(=O)[C@@H](N)CCCCN)C(C)C)C(=O)N[C@@H](CCC(N)=O)C(=O)N[C@@H](CC(C)C)C(=O)N[C@@H](Cc1ccccc1)C(=O)N[C@@H](Cc1c[nH]cn1)C(=O)N[C@@H](CCCCN)C(=O)N[C@@H](Cc1cccc2ccccc12)C(N)=O` [XMP.229], “b (No detectable activity up to 5 μg/well)”. Still for that read-out and setting: under `CC[C@H](C)[C@H](NC(=O)[C@H](CC(C)C)NC(=O)[C@H](Cc1c[nH]c2ccccc12)NC(=O)CNC(=O)[C@@H](NC(=O)[C@H](CCCCN)NC(=O)[C@H](CO)NC(=O)[C@@H](N)CCCCN)C(C)C)C(=O)N[C@@H](CCC(N)=O)C(=O)N[C@@H](CC(C)C)C(=O)N[C@@H](Cc1c[nH]c2ccccc12)C(=O)N[C@@H](Cc1c[nH]cn1)C(=O)N[C@@H](CCCCN)C(=O)N[C@@H](Cc1cccc2ccccc12)C(N)=O` [XMP.230] (H-KSKVGWLIQLWHK[1Nal]-NH2) stands >2,386 pmol/30 mm^2 zone. On the same count and under the same terms, in the case of `CC[C@H](C)[C@H](NC(=O)[C@H](CC(C)C)NC(=O)[C@H](Cc1c[nH]c2ccccc12)NC(=O)CNC(=O)[C@@H](NC(=O)[C@H](CCCCN)NC(=O)[C@H](CO)NC(=O)[C@@H](N)CCCCN)C(C)C)C(=O)N[C@@H](CCC(N)=O)C(=O)N[C@@H](Cc1cccc2ccccc12)C(=O)N[C@@H](Cc1ccccc1)C(=O)N[C@@H](Cc1cccc2ccccc12)C(=O)N[C@@H](CCCCN)C(=O)N[C@@H](CCCCN)C(N)=O` [XMP.231] (H-KSKVGWLIQ[1Nal]F[1Nal]KK-NH2) it was “b (No detectable activity up to 5 μg/well)”; in that of `CC[C@H](C)[C@H](NC(=O)[C@H](CC(C)C)NC(=O)[C@H](Cc1c[nH]c2ccccc12)NC(=O)CNC(=O)[C@@H](NC(=O)[C@H](CCCCN)NC(=O)[C@H](CO)NC(=O)[C@@H](N)CCCCN)C(C)C)C(=O)N[C@@H](Cc1ccc(N)cc1)C(=O)N[C@@H](CC(C)C)C(=O)N[C@@H](Cc1ccccc1)C(=O)N[C@@H](Cc1cccc2ccccc12)C(=O)N[C@@H](CCCCN)C(=O)N[C@@H](CCCCN)C(N)=O` [XMP.232] (H-KSKVGWLI[Phe(4-NH2)]LF[1Nal]KK-NH2), “b (No detectable activity up to 5 μg/well)”; in that of `CC[C@H](C)[C@H](NC(=O)[C@H](CC(C)C)NC(=O)[C@H](Cc1c[nH]c2ccccc12)NC(=O)[C@H](Cc1ccc(N)cc1)NC(=O)[C@@H](NC(=O)[C@H](CCCCN)NC(=O)[C@H](CO)NC(=O)[C@@H](N)CCCCN)C(C)C)C(=O)N[C@@H](CCC(N)=O)C(=O)N[C@@H](CC(C)C)C(=O)N[C@@H](Cc1ccccc1)C(=O)N[C@@H](Cc1cccc2ccccc12)C(=O)N[C@@H](CCCCN)C(=O)N[C@@H](CCCCN)C(N)=O` [XMP.233] (H-KSKV[Phe(4-NH2)]WLIQLF[1Nal]KK-NH2), “b (No detectable activity up to 5 μg/well)”. With `CC[C@H](C)[C@H](NC(=O)[C@H](CC(C)C)NC(=O)[C@H](Cc1c[nH]c2ccccc12)NC(=O)CNC(=O)[C@@H](NC(=O)[C@H](CCCCN)NC(=O)[C@H](CO)NC(=O)[C@@H](N)CCCCN)C(C)C)C(=O)N[C@@H](CCC(N)=O)C(=O)N[C@@H](CC(C)C)C(=O)N[C@@H](Cc1c[nH]c2ccccc12)C(=O)N[C@@H](Cc1cccc2ccccc12)C(=O)N[C@@H](CCCCN)C(=O)N[C@@H](CCCCN)C(N)=O` [XMP.234] (H-KSKVGWLIQLW[1Nal]KK-NH2), the “C. albicans pmol/30 mm^2 zone” value is “b (No detectable activity up to 5 μg/well)”.
